Results: patent publication US20220401564A1 (DANA-FARBER CANCER INSTITUTE, INC., priority 2019, published 2022)

Legend:
[1] = test system: other identified HDAC proteins; assay: Change in cellular protein abundance (TMT proteomics) in Kelly cells; assay type: cell-based, human; settings: 1 μM, 5 hours, vs DMSO
Description: (§1) Lysis buffer (8 M Urea, 50 mM NaCl, 50 mM 4-(2hydroxyethyl)-1-piperazineethanesulfonic acid (EPPS) pH 8.5, protease and phosphatase inhibitors from Roche®) were added to the cell pellets and homogenized by 20 passes through a 21 gauge (1.25 in. long) needle to achieve a cell lysate with a protein concentration between 1-4 mg mL-1. A micro-BCA assay (Pierce™) was used to determine the final protein concentration in the cell lysate. 200 μg of protein for each sample were reduced and alkylated as described in Donovan et al., Elife 7:e38430 (2018).
Proteins were precipitated using methanol/chloroform. Four volumes of methanol were added to the cell lysate, followed by one volume of chloroform, and finally three volumes of water. The mixture was vortexed and centrifuged to separate the chloroform phase from the aqueous phase. […]
Anhydrous ACN was added to each peptide sample to a final concentration of 30% v/v, and labeling was induced with the addition of TMT reagent to each sample at a ratio of 1:4 peptide:TMT label. […] The sample channels were combined at a 1:1:1:1:1:1:1:1:1:1:1 ratio, desalted using Cis solid phase extraction cartridges (Waters®) and analyzed by LC-MS for channel ratio comparison. Samples were then combined using the adjusted volumes determined in the channel ratio analysis and dried down in a speed vacuum. […]

VHL = target: T1, VHL (Homo sapiens, UniProt P40337); assay: Cellular VHL engagement assay (BRD4BD2-GFP / mCherry reporter cells); assay type: cell-based; settings: with 250 nM AT1, 5 h
T1 construct: Cells stably expressing the BRD4BD2-GFP with mCherry reporter (40) were seeded; endogenous in cells
Description: Cells stably expressing the BRD4BD2-GFP with mCherry reporter (40) were seeded at 30-50% confluency in 384-well plates with 50 μL per well of FluoroBrite™ DMEM media (Thermo Fisher Scientific, A18967) supplemented with 10% FBS a day before compound treatment. Compounds and 250 nM AT1((2S,4R)-1-(2R)-2-Acetamido-3-[[6-[2-[(6S)-4-(4-chlorophenyl)-2,3,9-trimethyl-6H-thieno[3,2-f][1,2,4]triazolo[4,3-a][1,4]diazepin-6-yl]acetamido]hexyl]thio]-3-methylbutanoyl]-4-hydroxy-N-[4-(4-methylthiazol-5-yl)benzyl)pyrrolidinine-2-carboxamide) were dispensed using a D300e Digital Dispenser (HP), normalized to 0.5% DMSO, and incubated with the cells for 5 h. The assay plate was imaged immediately using an Acumen® High Content Imager (TTP Labtech) with 488 nm and 561 nm lasers in a […] grid per well format. The resulting images were analyzed using CellProfiler™.
A series of image analysis steps (an ‘image analysis pipeline’) was constructed. First, the red and green channels were aligned and cropped to target the middle of each well (to avoid analysis of the heavily clumped cells at the edges). A background illumination function was calculated for both red and green channels of each well individually and subtracted to correct for illumination variations across the 384-well plate from various sources of error. An additional step was then applied to the green channel to suppress the analysis of large auto fluorescent artifacts and enhance the analysis of cell specific fluorescence by way of selecting for objects under a given size (30 A.U.) and with a given shape (speckles). mCherry-positive cells were then identified in the red channel by filtering for objects 8-60 pixels in diameter and by using intensity to distinguish between clumped objects. The green channel was then segmented into GFP positive and negative areas and objects were labeled as GFP positive if at least 40% of it overlapped with a GFP positive area. The fraction of GFP-positive cells/mCherry-positive cells in each well was then calculated, and the green and red images were rescaled for visualization.

HDAC3 [2] = target: T2, HDAC3 (Homo sapiens, UniProt O15379); assay: Change in cellular protein abundance (TMT proteomics) in Kelly cells; assay type: cell-based; parameters: relative change in relative protein abundance with treatment of Kelly cells; endogenous in cells; host or cells: Kelly cells
Description: as §1
Target sequence in this assay (O15379 whole entry): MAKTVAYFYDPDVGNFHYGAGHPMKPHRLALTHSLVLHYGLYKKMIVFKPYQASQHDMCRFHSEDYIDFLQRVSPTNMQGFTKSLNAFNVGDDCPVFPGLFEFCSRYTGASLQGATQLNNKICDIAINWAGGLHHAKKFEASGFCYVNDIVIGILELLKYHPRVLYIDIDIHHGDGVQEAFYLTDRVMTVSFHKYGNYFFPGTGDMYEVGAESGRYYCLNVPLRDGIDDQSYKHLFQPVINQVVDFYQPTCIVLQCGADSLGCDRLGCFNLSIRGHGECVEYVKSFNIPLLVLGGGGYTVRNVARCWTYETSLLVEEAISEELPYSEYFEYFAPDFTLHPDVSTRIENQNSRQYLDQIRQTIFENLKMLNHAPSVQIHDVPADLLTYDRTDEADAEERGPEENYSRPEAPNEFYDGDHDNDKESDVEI
Proteins were precipitated using methanol/chloroform. Four volumes of methanol were added to the cell lysate, followed by one volume of chloroform, and finally three volumes of water. The mixture was vortexed and centrifuged to separate the chloroform phase from the aqueous phase. The precipitated protein was washed with three volumes of methanol, centrifuged and the resulting washed precipitated protein was allowed to air dry. The precipitated protein was resuspended in 4 M Urea, 50 mM HEPES pH 7.4, followed by dilution to 1 M urea with the addition of 200 mM EPPS, pH 8. Proteins were first digested with LysC (1:50; enzyme:protein) for 12 hours at room temperature. The LysC digestion was diluted to 0.5 M Urea with 200 mM EPPS pH 8 followed by digestion with trypsin (1:50; enzyme:protein) for 6 hours at 37° C. Tandem mass tag (TMT) reagents (Thermo Fisher Scientific) were dissolved in anhydrous acetonitrile (ACN) according to manufacturer's instructions.
Anhydrous ACN was added to each peptide sample to a final concentration of 30% v/v, and labeling was induced with the addition of TMT reagent to each sample at a ratio of 1:4 peptide:TMT label. The 10-plex labeling reactions were performed for 1.5 hours at room temperature and the reaction quenched by the addition of hydroxylamine to a final concentration of 0.3% for 15 minutes at room temperature. The sample channels were combined at a 1:1:1:1:1:1:1:1:1:1:1 ratio, desalted using Cis solid phase extraction cartridges (Waters®) and analyzed by LC-MS for channel ratio comparison. Samples were then combined using the adjusted volumes determined in the channel ratio analysis and dried down in a speed vacuum. The combined sample was then resuspended in 1% formic acid, and acidified (pH 2-3) before being subjected to desalting with C18 SPE (Sep-Pak®, Waters®). Samples were then offline fractionated into 96 fractions by high pH reverse-phase HPLC (Agilent® LC1260) through an aeris peptide xb-c18 column (Phenomenex®) with mobile phase A containing 5% acetonitrile and 10 mM NH4HCO3 in LC-MS grade H2O, and mobile phase B containing 90% acetonitrile and 10 mM NH4HCO3 in LC-MS grade H2O (both pH 8.0). The 96 resulting fractions were then pooled in a non-continuous manner into 24 fractions and these fractions were used for subsequent mass spectrometry analysis.
Data were collected using an Orbitrap Fusion™ Lumos™ mass spectrometer (Thermo Fisher Scientific, San Jose, Calif., USA) coupled with a Proxeon EASY-nLC™ 1200 LC pump (Thermo Fisher Scientific). Peptides were separated on an EasySpray™ ES803 75 μm inner diameter microcapillary column (ThermoFisher Scientific).
Each analysis used an MS3-based TMT method as described previously. The data were acquired using a mass range of m z 340-1350, resolution 120,000, automatic gain control (AGC) target 1×10^6, maximum injection time 100 ms, dynamic exclusion of 120 seconds for the peptide measurements in the Orbitrap Fusion™ Lumos™ mass spectrometer. Data dependent MS2 spectra were acquired in the ion trap with a normalized collision energy (NCE) set at 55%, AGC target set to 1.5×10^5 and a maximum injection time of 150 ms. […]

HDAC2 = target: T3, HDAC2 (Homo sapiens, UniProt Q92769); assay: HDAC enzymatic assay (Reaction Biology), fluorogenic substrate; assay type: biochemical
T3 construct: purchased Reaction Biology
Description: (§2) Compounds 2 and 9 were tested in an enzymatic assay from Reaction Biology® against HDAC isoforms.
(§3) Base Reaction buffer: 50 mM Tris-HCl, pH8.0, 137 mM NaCl, 2.7 mM KCl, and 1 mM MgCl2. Add fresh: 1 mg/ml BSA, 1% DMSO
(§4) Fluorogenic HDAC General Substrate (HDAC1, HDAC2, HDAC3, HDAC6, HDAC10, and HDAC11): 50 μM, Arg-His-Lys-Lys(Ac)-AMC
(§5) 1. Delivered 2X enzyme in wells of reaction plate except in the control wells and added buffer to control wells. 2. Delivered compounds in 100% DMSO into the enzyme mixture by Acoustic technology (Echo550; nanoliter range). Spin down and pre-incubation. 3. Delivered 2X Substrate Mixture (Fluorogenic HDAC Substrate and co-factor if applicable) in all reaction wells to initiate the reaction. Spin and shake. 4. Incubated for 30 min for Class 2A, 1 h for HDAC1, 2, 3, and 6, and 2 h for the rest of HDAC isoforms and SIRTs at 30° C. with seal.
(§6) 5. Added Developer with Trichostatin A (or Nicotinamide for SIRTs) to stop the reaction and to generate fluorescent color. 6. The fluorescence that was generated was detected with excitation (Ex) at […] and emission (Em) at 460 nM by the EnVision Multilabel Plate Reader (PerkinElmer®, Santa Clara, Calif., USA).
(§7) IC50 values were derived from a 10-dose response curve. As shown in Tables 1-2, the addition of a linker and CRBN targeting group altered the isoform selectivity of the SAHA-based degrader compounds.

HDAC1 = target: T4, HDAC1 (Homo sapiens, UniProt Q13547); assay: as above; assay type: biochemical
T4 construct: purchased Reaction Biology
Description: as §2, §3, §4, §5, §6, §7

HDAC3 [3] = target: T2, HDAC3; assay: as above; assay type: biochemical; parameters: purchased Reaction Biology
Description: as §2, §3, §4, §5, §6, §7
Target sequence in this assay (O15379 whole entry): as above
Target sequence in this assay (Q9Y618 395-489 partner limits assumed): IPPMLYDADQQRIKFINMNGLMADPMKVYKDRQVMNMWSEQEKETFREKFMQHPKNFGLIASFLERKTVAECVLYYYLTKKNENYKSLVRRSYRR

HDAC6 = target: T5, HDAC6 (Homo sapiens, UniProt Q9UBN7); assay: as above; assay type: biochemical; parameters: purchased Reaction Biology
T5 sequence (Q9UBN7 1-1215): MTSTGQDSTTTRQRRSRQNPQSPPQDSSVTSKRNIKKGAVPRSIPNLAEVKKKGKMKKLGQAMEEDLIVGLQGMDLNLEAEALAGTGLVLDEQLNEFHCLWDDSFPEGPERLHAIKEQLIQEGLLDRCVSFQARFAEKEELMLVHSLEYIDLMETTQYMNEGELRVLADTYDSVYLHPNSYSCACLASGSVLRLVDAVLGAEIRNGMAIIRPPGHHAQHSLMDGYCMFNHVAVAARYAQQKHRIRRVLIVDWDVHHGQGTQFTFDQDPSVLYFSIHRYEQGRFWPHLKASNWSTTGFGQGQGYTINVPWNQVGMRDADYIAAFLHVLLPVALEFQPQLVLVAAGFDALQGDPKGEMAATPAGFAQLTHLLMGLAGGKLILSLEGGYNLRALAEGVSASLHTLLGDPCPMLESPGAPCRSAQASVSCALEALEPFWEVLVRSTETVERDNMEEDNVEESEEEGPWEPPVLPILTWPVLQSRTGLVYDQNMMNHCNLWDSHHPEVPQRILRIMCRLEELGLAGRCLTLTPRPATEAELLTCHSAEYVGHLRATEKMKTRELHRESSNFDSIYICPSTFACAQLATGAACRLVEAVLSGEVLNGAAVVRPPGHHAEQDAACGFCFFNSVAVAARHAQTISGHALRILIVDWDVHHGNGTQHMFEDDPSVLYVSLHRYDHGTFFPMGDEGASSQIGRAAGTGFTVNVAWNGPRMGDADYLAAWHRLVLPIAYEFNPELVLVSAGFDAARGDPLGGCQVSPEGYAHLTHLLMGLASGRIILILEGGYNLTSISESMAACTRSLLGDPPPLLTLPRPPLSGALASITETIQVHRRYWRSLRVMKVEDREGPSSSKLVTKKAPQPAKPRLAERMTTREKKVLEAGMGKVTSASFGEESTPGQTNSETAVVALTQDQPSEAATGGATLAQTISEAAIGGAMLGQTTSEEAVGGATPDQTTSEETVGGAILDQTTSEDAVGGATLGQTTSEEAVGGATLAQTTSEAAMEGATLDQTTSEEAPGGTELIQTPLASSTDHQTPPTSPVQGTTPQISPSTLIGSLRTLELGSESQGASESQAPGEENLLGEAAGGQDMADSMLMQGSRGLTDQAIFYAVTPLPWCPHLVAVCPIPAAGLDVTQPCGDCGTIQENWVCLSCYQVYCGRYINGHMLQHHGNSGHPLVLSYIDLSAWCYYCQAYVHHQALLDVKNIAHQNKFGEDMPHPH
Description: as §2, §3, §4, §5, §6, §7

HDAC8 = target: T6, HDAC8 (Homo sapiens, UniProt Q9BY41); assay: HDAC enzymatic assay (Reaction Biology), HDAC8 substrate; assay type: biochemical; parameters: purchased Reaction Biology
T6 sequence (Q9BY41 1-377): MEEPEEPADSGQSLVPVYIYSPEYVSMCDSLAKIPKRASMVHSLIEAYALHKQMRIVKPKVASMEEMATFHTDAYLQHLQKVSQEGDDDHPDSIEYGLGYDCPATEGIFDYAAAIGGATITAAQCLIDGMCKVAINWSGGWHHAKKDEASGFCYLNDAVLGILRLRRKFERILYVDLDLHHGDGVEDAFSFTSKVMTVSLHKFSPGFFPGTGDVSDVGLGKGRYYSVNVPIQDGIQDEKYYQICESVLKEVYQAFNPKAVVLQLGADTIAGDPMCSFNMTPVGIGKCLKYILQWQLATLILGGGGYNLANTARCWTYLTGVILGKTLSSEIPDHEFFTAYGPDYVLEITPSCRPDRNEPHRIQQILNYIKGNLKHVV
Description: as §2, §3
(HDAC8 only substrate: 50 μM, Arg-His-Lys(Ac)-Lys(Ac))-AMC
as §5, §6, §7

T4 sequence (Q13547 whole entry): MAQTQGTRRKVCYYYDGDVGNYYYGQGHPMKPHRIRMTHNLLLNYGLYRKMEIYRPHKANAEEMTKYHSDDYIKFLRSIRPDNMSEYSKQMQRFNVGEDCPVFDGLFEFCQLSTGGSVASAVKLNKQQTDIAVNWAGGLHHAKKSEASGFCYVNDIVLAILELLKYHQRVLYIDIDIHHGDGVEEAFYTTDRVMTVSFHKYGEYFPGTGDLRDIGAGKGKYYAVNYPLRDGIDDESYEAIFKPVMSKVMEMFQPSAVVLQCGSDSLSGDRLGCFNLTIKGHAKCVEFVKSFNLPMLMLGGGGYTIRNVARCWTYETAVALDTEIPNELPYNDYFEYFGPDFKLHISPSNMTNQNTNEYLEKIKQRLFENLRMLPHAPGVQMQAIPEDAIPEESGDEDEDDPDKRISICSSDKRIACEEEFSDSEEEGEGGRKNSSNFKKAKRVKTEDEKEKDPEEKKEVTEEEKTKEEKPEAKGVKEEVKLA
T1 sequence (P40337 whole entry, species assumed): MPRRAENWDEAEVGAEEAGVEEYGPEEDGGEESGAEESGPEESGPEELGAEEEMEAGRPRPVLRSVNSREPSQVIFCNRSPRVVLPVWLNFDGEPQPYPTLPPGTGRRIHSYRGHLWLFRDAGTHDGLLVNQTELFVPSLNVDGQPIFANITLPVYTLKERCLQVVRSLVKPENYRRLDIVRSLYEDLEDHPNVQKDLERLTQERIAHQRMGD
T3 sequence (Q92769 whole entry): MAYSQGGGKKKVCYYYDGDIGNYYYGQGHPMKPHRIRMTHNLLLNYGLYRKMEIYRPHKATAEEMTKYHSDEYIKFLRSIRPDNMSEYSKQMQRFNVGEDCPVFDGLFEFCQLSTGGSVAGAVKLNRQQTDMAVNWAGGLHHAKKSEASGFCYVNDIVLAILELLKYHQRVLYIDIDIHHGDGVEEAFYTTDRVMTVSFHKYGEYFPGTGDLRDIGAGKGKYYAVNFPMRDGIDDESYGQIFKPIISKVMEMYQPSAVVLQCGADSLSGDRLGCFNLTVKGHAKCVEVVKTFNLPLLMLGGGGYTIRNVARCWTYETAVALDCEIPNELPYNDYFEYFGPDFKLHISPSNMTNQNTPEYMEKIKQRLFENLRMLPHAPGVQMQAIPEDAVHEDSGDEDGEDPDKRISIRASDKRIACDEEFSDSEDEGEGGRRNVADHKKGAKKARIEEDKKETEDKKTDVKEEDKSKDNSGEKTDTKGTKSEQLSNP

IC50 (VHL) [µM]	cellular HDAC3 protein levels, change in relative protein abundance (heat map FIG. 2) (HDAC3 [2]; 1 μM, 5 hours, vs DMSO)	HDAC3 protein levels, relative protein abundance compared to DMSO control (HDAC3 [2]; scatter plots FIG. 1 and FIG. 3)	inhibition of HDAC2 deacetylase activity in vitro (in words) (HDAC2)	IC50 (HDAC2; 10-dose response curve, read-out: Compound IC50 (M), HDAC2) [M]	inhibition of HDAC1 deacetylase activity in vitro (in words) (HDAC1)	IC50 (HDAC1; 10-dose response curve, read-out: Compound IC50 (M), HDAC1) [M]	inhibition of HDAC3 deacetylase activity in vitro (in words) (HDAC3 [3])	IC50 (HDAC3 [3]; 10-dose response curve, read-out: Compound IC50 (M), HDAC3) [M]	inhibition of HDAC6 activity in vitro (in words) (HDAC6)	inhibition of HDAC8 deacetylase activity in vitro (in words) (HDAC8)	Compound	cellular protein levels of the other identified HDAC proteins (heat map FIG. 2) [1]
16.9	down-regulation	significant and selective reduction									Cc1ncsc1-c1ccc([C@H](C)NC(=O)[C@@H]2C[C@@H](O)CN2C(=O)[C@@H](NC(=O)CCOCCN(CCc2c[nH]c3ccccc23)Cc2ccc(/C=C/C(=O)NO)cc2)C(C)(C)C)cc1 [Compound 1, (2S,4R)-1-((S)-2-(3-(2-((2-(1H-indol-3-yl)ethyl)(4-((E)-3-(hydroxyamino)-3-oxoprop-1-en-1-yl)benzyl)amino)ethoxy)propanamido)-3,3-dimethylbutanoyl)-4-hydroxy-N—((S)-1-(4-(4-methylthiazol-5-yl)phenyl)ethyl)pyrrolidine-2-carboxamide]	did not affect
298			moderate inhibition	1.15e-05	moderate inhibition	9.5e-06	moderate inhibition	1.12e-05	did not inhibit	did not inhibit	Cc1ncsc1-c1ccc([C@H](C)NC(=O)[C@@H]2C[C@@H](O)CN2C(=O)[C@@H](NC(=O)CCOCCN(CCc2c[nH]c3ccccc23)Cc2ccc(/C=C/C(=O)Nc3ccccc3N)cc2)C(C)(C)C)cc1 [Compound 9, (2S,4R)-1-((S)-2-(3-(2-((2-(1H-indol-3-yl)ethyl)(4-((E)-3-((2-aminophenyl)amino)-3-oxoprop-1-en-1-yl)benzyl)amino)ethoxy)propanamido)-3,3-dimethylbutanoyl)-4-hydroxy-N—((S)-1-(4-(4-methylthiazol-5-yl)phenyl)ethyl)pyrrolidine-2-carboxamide]	
